Experimental data reported in patent US9540389B2, “Antimicrobial potentiators” (priority 2013, dated 2017).

Tests used:
[1] = tested on: Escherichia coli 285 (AB1157, CIPR, overexpresses efflux); assay: microbe, parasite or virus in culture; assay type: cell-based
Source text: (§1) • Strains and Reagents. The following strains were obtained from the Keio collection (Baba, et al.: Construction of Escherichia coli K-12 in-frame, single-gene knockout mutants: the Keio collection. In Mol Syst Biol, vol. 2, pp. 2006 0008, (2006)): JW0451 (ΔacrB::kan), JW5503 (ΔtolC::kan), JW3234 (ΔacrF::kan), JW2661 (ΔemrB::kan), JW0863 (ΔmacB::kan). The deletion mutations in each of these strains were transferred to AB1157 using P1 phage transduction (see Table 1). The construction of the E. coli cell-based reporter strain (SOS-XXX) that was used for high throughput screening is described in detail in the supplementary information. […] Irgasan was a generous gift from Ciba Speciality Chemicals, Inc. (High Point, N.C.). Hoechst 33342 (H33342) was purchased from Molecular Probes (Eugene, Oreg.). […] Luria Broth (Miller) and agar were purchased as prepared dehydrated media from Becton Dickenson (Franklin Lakes, N.J.). The compound libraries used in high-throughput screens were purchased from Chembridge (San Diego, Calif.), ChemDiv (San Diego, Calif.), and TimTec (Newark, Del.). MBX2319 was synthesized by Microbiotix, Inc. • Antibacterial Activity Assays. The minimal inhibitory concentration (MIC) of antibacterial agents and biocides were determined using the microbroth dilution method essentially as described in the CLSI protocol M7-A7 (CLSI: Method for dilution antimicrobial susceptibility testing for bacteria that grow aerobically; Approved standard-document M7-A7. In Clinical and Laboratory Standards Institute document M7-A7, Clinical and Laboratory Standards Institute, Wayne, Pa., (2006)), with the following exceptions. LB media was used instead of MHB. […] The final concentration of DMSO in each assay was 2%. […] MIC assays were performed in triplicate and the geometric mean was calculated. Checkerboard MIC assays using an EPI and an antibacterial agent were performed essentially as described (Pillai, et al.: Antimicrobial Combinations. In Antibiotics in Laboratory Medicine, ed. by V. Lorian, pp. 365-440, Lippincott Williams & Wilkins, Philadelphia, Pa., (2005)), with the same modifications used for the MIC assays described above. • Time-Kill Assays. Killing curve assays were performed essentially as described (Pillai, et al.: Antimicrobial Combinations. In Antibiotics in Laboratory Medicine, ed. by V. Lorian, pp. 365-440, Lippincott Williams & Wilkins, Philadelphia, Pa., (2005)). Exponential bacterial cultures grown in LB were diluted to a cell density of ˜1×10^7 in LB followed by addition of CIP and/or an EPI. Viability was monitored over 2-4 hours by making serial dilutions in saline and spotting 5 μl of each dilution onto the surface of an LB agar plate in triplicate. Colonies were counted after the plates were incubated at 37° C. for 16-18 hr, colony forming units (CFU) per ml were calculated, and the average and standard deviation for the three replicates was determined. For treatments that decreased CFU/ml below the limit of detection for the spot plating method, the 100 μl samples were diluted into 5 ml LB top agar, were poured onto LB agar plates, and incubated for 18 hr at 37° C. To calculate the fraction of the control for each sample, the average CFU/ml values for treated samples were divided by those from the same sample at 0 h (time=0). Each experiment was repeated at least three times, and a representative experiment is shown. • H33342 Accumulation Assay. The rate of accumulation of the fluorescent dye Hoechst 33342 (H33342), which is a substrate of a wide variety of bacterial efflux pumps (van den Berg van Saparoea, et al., Biochemistry, vol. 44, pp. 16931-16938, (2005)), can be used to estimate the activity of the major efflux pumps in E. coli and many other bacterial species. The H33342 accumulation assay was used to evaluate the effect of EPIs on the activity of the AcrAB-TolC efflux pump in several bacterial species essentially as described (Coldham, et al., J Antimicrob Chemother, vol. 65, pp. 1655-1663, (2010)). […]

[2] = tested on: Escherichia coli 287 (AB1157, CIPR, overexpresses efflux); assay: microbe, parasite or virus in culture; assay type: cell-based
Source text: as §1

[3] = tested on: Enterobacter aerogenes ATCC 13048; assay: MIC assay (microbroth dilution) ± 25 μM EPI; assay type: cell-based
Source text: as §1

[4] = tested on: Escherichia coli 331; assay: MIC assay (microbroth dilution) ± 25 μM EPI; assay type: cell-based; details: E. coli 331
Source text: as §1

[5] = tested on: Escherichia coli AB1157; assay: MIC assay (microbroth dilution) ± 25 μM EPI; assay type: cell-based
Source text: as §1

[6] = tested on: Escherichia coli ATCC 25922; assay: MIC assay (microbroth dilution) ± 25 μM EPI; assay type: cell-based
Source text: as §1

[7] = tested on: Klebsiella pneumoniae ATCC 700603; assay: MIC assay (microbroth dilution) ± 25 μM EPI; assay type: cell-based
Source text: as §1

[8] = tested on: Salmonella enterica ATCC 14028; assay: MIC assay (microbroth dilution) ± 25 μM EPI; assay type: cell-based
Source text: as §1

[9] = tested on: Shigella flexneri ATCC 12022; assay: MIC assay (microbroth dilution) ± 25 μM EPI; assay type: cell-based
Source text: as §1

[10] = tested on: P. aeruginosa ATCC 27853; assay: MIC assay (microbroth dilution) ± 25 μM EPI; assay type: cell-based, Pseudomonas aeruginosa
Source text: as §1

[11] = Escherichia coli, read-out: MIC (μg/ml) with MBX2319 at concn (μM) of: 0

SMILES: CO/N=C(\C(=O)N[C@@H]1C(=O)N2C(C(=O)O)=C(COC(C)=O)CS[C@H]12)c1csc(N)n1 [CEF, cefotaxime]
- MIC (μg/ml) with MBX2319 at concn (μM) of: 3.13 ([1]; 285, MBX2319 3.13 μM): 0.063 µg/mL
- MIC (μg/ml) with MBX2319 at concn (μM) of: 6.25 ([1]; 285, MBX2319 6.25 μM): 0.063 µg/mL
- MIC (μg/ml) with MBX2319 at concn (μM) of: 25 ([1]; 285, MBX2319 25 μM): 0.031 µg/mL
- MIC (μg/ml) with MBX2319 at concn (μM) of: 50 ([1]; 285, MBX2319 50 μM): 0.031 µg/mL
- MIC [1, 11]: 0.25 µg/mL
- MIC (μg/ml) with MBX2319 at concn (μM) of: 6.25 ([2]; 287, MBX2319 6.25 μM): 0.063 µg/mL
- MIC (μg/ml) with MBX2319 at concn (μM) of: 25 ([2]; 287, MBX2319 25 μM): 0.063 µg/mL
- MIC (μg/ml) with MBX2319 at concn (μM) of: 50 ([2]; 287, MBX2319 50 μM): 0.063 µg/mL
- MIC [2, 11]: 0.25 µg/mL
- MIC (μg/ml) ± EPI: MBX2319 ([3]; + 25 μM MBX2319): 2.4 µg/mL
- MIC (μg/ml) ± EPI: PAβN ([3]; + 25 μM PAβN): 6.7 µg/mL
- MIC ([3]; Klebsiella aerogenes, ATCC13048, no EPI, read-out: MIC (μg/ml) ± EPI: None): 2 µg/mL
- MIC (μg/ml) ± EPI: MBX2319 ([4]; + 25 μM MBX2319): 0.031 µg/mL
- MIC (μg/ml) ± EPI: PAβN ([4]; + 25 μM PAβN): 0.353 µg/mL
- MICs (μg/ml) ± EPIs: MBX2319 ([5]; E. coli AB1157 (WT), + 25 μM MBX2319, geometric mean): 0.022 µg/mL
- MICs (μg/ml) ± EPIs: PAβN ([5]; E. coli AB1157 (WT), + 25 μM PAβN, geometric mean): 0.25 µg/mL
- MIC ([5]; Escherichia coli, AB1157, read-out: MICs (μg/ml) ± EPIs: None): 0.1 µg/mL
- MIC (μg/ml) ± EPI: MBX2319 ([6]; E. coli ATCC 25922, + 25 μM MBX2319): 0.063 µg/mL
- MIC (μg/ml) ± EPI: PAβN ([6]; E. coli ATCC 25922, + 25 μM PAβN): 0.25 µg/mL
- MIC ([6]; Escherichia coli, ATCC25922, read-out: MIC (μg/ml) ± EPI: None): 0.074 µg/mL
- MIC (μg/ml) ± EPI: MBX2319 ([7]; + 25 μM MBX2319): 8 µg/mL
- MIC (μg/ml) ± EPI: PAβN ([7]; + 25 μM PAβN): 8 µg/mL
- MIC ([7]; ATCC700603, no EPI, read-out: MIC (μg/ml) ± EPI: None): 8 µg/mL
- MIC (μg/ml) ± EPI: MBX2319 ([8]; + 25 μM MBX2319): 0.063 µg/mL
- MIC (μg/ml) ± EPI: PAβN ([8]; + 25 μM PAβN): 0.297 µg/mL
- MIC ([8]; ATCC14028, no EPI, read-out: MIC (μg/ml) ± EPI: None): 0.21 µg/mL
- MIC (μg/ml) ± EPI: MBX2319 ([9]; Shigella flexneri ATCC 12022, + 25 μM MBX2319): 0.031 µg/mL
- MIC (μg/ml) ± EPI: PAβN ([9]; Shigella flexneri ATCC 12022, + 25 μM PAβN): 0.063 µg/mL
- MIC ([9]; Shigella flexneri, ATCC12022, read-out: MIC (μg/ml) ± EPI: None): 0.063 µg/mL
- MIC (μg/ml) ± EPI: MBX2319 ([10]; + 25 μM MBX2319): 8 µg/mL
- MIC (μg/ml) ± EPI: PAβN ([10]; + 25 μM PAβN): 19 µg/mL
- MIC ([10]; Pseudomonas aeruginosa, ATCC27853, no EPI, read-out: MIC (μg/ml) ± EPI: None): 53.8 µg/mL
